Assay results from ChEMBL document CHEMBL1136907, “Structural insight into human CK2alpha in complex with the potent inhibitor ellagic acid” (Bioorg Med Chem Lett, 2009).

Tests used:
[1] = Inhibition of rat liver CK2 catalytic activity
[2] = Inhibition of PKA
[3] = Inhibition of rat liver CK2 by Lineweaver-Burke double reciprocal plot analysis
[4] = Inhibition of PKC

O=c1oc2c(O)c(O)cc3c(=O)oc4c(O)c(O)cc1c4c23 [ELLAGIC ACID]
IC50 [1]: 40 nM
IC50 [2]: 2000 nM
Ki [3]: 20 nM
IC50 [4]: 8000 nM
